Assay results: US11358969B2, “Indole AHR inhibitors and uses thereof” (Ikena Oncology, Inc., priority 2017, dated 2022)
“And” between values parts separate entries of the source, which are not always exact repeats. Equal entries are not always repeated.

Key:
AHR = target: T1, AHR (UniProt P35869); experiment: DRE-Luciferase Reporter Assay (Alternate Method) (Example 1B); type: cell-based, murine or human; conditions: cell line and AHR activating ligand not specified
T1 construct: IC50
T1 sequence (P35869 1-848): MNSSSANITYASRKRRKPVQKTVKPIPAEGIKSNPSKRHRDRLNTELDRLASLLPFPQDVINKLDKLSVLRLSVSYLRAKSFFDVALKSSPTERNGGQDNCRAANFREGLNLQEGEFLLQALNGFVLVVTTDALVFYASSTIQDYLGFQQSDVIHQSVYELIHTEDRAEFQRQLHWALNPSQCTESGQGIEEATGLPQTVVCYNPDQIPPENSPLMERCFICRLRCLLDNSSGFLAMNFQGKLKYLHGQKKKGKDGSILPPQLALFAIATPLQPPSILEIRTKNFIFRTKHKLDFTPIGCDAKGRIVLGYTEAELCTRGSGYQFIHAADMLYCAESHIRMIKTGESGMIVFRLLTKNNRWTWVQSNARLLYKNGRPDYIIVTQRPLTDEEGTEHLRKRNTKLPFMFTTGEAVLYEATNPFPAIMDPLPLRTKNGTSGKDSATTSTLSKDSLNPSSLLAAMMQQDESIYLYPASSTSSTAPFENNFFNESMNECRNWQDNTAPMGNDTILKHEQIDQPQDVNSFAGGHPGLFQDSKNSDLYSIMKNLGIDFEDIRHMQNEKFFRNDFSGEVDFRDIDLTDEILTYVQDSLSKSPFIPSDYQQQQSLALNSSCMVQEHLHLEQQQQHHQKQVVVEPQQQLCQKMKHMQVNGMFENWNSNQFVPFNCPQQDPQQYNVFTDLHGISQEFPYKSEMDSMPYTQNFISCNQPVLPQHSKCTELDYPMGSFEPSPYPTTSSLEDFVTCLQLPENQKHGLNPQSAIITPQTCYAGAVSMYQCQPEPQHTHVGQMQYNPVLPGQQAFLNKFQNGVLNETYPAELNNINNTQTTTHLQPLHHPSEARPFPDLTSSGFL

[1] = In Vitro Mouse liver S9 Metabolic Stability Assay (Example 1D); type: in vitro ADME; conditions: CD-1 mouse liver S9, 1 μM compound, 1 mg/mL S9 protein, 37° C., NADPH regenerating system, UDPGA, PAPS
Method: CD-1 mouse liver S9 were purchased from Corning or XenoTech LLC or BioreclamationIVT, LLC or WuXi prepared. The cells were stored at −80° C. in a freezer before use. β-Nicotinamide adenine dinucleotide phosphate (NADP), Glucose 6-phosphate (G6P), Glucose 6-phosphate dehydrogenase from yeast (G6PDH), Uridine 5′-diphophoglucuronic acid trisodium salt (UDPGA) and Adenosine 3′-phosphate 5′-phosphosulfate lithium salt hydrate (PAPS) were available commercially from Sigma.
Compounds were diluted in DMSO to make 10 mM stock solution. 5 μL of this stock solution (10 mM, DMSO) was diluted with 45 μL DMSO and 450 μL 50% Methanol/Water to make intermediate stock solution (100 μM, 45% MeOH, 10% DMSO). 50 μL of intermediate stock solution was diluted with 450 μL 100 mM phosphate buffer to make a final stock solution (10 μM, 4.5% MeOH, 1% DMSO). 10 uL of final stock solution was added to 90 uL liver S9 system (final concentration of 1 μM, 0.45% MeOH, 0.1% DMSO).
Test compounds were incubated at 37° C. with liver S9 (pooled from multiple donors) at 1 μM in the presence of a NADPH regenerating system, UDPGA, and PAPS at 1 mg/mL S9 protein. Time samples (0 and 60 minutes) were removed and immediately mixed with cold acetonitrile containing internal standard (IS). Samples were analyzed by LC/MS/MS and disappearance of test compounds were assessed based on peak area ratios of analyte /IS (no standard curve). All samples were injected and analyzed using LC-MS/MS. The analyte/internal standard peak area ratios were converted to percentage remaining (% Remaining) with the following equation: % Remaining at 60 min=(Peak area ratio of analyte to IS at 60 min/Peak area ratio of analyte to IS at t=0)×100%. Table 5. Mouse Stability Data According to Example 1D.

Row | SMILES | IC50 (AHR) | Mouse S9 Stability: % Remaining After 60 Minutes [1]
1 | CC(C)c1cnc2c(N[C@@H]3CCc4[nH]c5ccccc5c4C3)nc(-c3cncc(F)c3)cn12 [I-30, (3R)—N-[6-(5-Fluoro-3-pyridyl)-3-isopropyl-imidazo[1,2-a]pyrazin-8-yl]-2,3,4,9-tetrahydro-1H-carbazol-3-amine] | < 500 nM | 11%
2 | Fc1cncc(-c2nc(N[C@@H]3CCc4[nH]c5ccccc5c4C3)cc(N3CCCC3)n2)c1 [I-36, (3R)—N-[2-(5-Fluoro-3-pyridyl)-6-pyrrolidin-1-yl-pyrimidin-4-yl]-2,3,4,9-tetrahydro-1H-carbazol-3-amine] | > 1500 nM | 29%
3 | CC(C)c1cnn2c(NCCc3c[nH]c4ccccc34)cc(-c3ccccc3)nc12 [I-45, N-[2-(1H-indol-3-yl)ethyl]-3-isopropyl-5-phenyl-pyrazolo[1,5-a]pyrimidin-7-amine] | < 500 nM | 19%
4 | Fc1cncc(-c2cc(NCCc3c[nH]c4ccccc34)n3ncc(C(F)(F)F)c3n2)c1 [I-47, 5-(5-Fluoro-3-pyridyl)-N-[2-(1H-indol-3-yl)ethyl]-3-(trifluoromethyl)pyrazolo[1,5-a]pyrimidin-7-amine] | < 500 nM | 50%
5 | CN1CCN(c2cc(NCCc3c[nH]c4ccccc34)nc(-c3cncc(F)c3)n2)CC1 [I-67, 2-(5-Fluoro-3-pyridyl)-N-[2-(1H-indol-3-yl)ethyl]-6-(4-methylpiperazin-1-yl)pyrimidin-4-amine] | < 500 nM | 5% and 1%
6 | CN1CCN(C(=O)c2cnn3c(NCCc4c[nH]c5ccccc45)cc(-c4cncc(F)c4)nc23)CC1 [I-68, [5-(5-Fluoro-3-pyridyl)-7-[2-(1H-indol-3-yl)ethylamino]pyrazolo[1,5-a]pyrimidin-3-yl]-(4-methylpiperazin-1-yl)methanone] | 500 to 1000 nM | 4%
7 | CC(C)Oc1cc(-c2cncc(F)c2)nc(NCCc2c[nH]c3ccccc23)n1 [I-72, 4-(5-Fluoro-3-pyridyl)-N-[2-(1H-indol-3-yl)ethyl]-6-isopropoxy-pyrimidin-2-amine] | < 500 nM | 3%
8 | NC(=O)c1cnn2c(NCCc3c[nH]c4ccccc34)cc(-c3cncc(F)c3)nc12 [I-78, 5-(5-Fluoro-3-pyridyl)-7-[2-(1H-indol-3-yl)ethylamino]pyrazolo[1,5-a]pyrimidine-3-carboxamide] | < 500 nM | 1%
9 | CC(C)c1cnn2c(NCCc3c[nH]c4ccccc34)cc(-c3cncc(C#N)c3)nc12 [I-81, 5-[7-[2-(1H-indol-3-yl)ethylamino]-3-isopropyl-pyrazolo[1,5-a]pyrimidin-5-yl]pyridine-3-carbonitrile] | < 500 nM | 2%
10 | CC(C)(C)c1cnn2c(NCCc3c[nH]c4ccccc34)cc(-c3cncc(F)c3)nc12 [I-90, 3-tert-Butyl-5-(5-fluoro-3-pyridyl)-N-[2-(1H-indol-3-yl)ethyl]pyrazolo[1,5-a]pyrimidin-7-amine] | < 500 nM | 11%
11 | CON(C)C(=O)c1cnn2c(NCCc3c[nH]c4ccccc34)cc(-c3cncc(F)c3)nc12 [I-92, 5-(5-Fluoro-3-pyridyl)-7-[2-(1H-indol-3-yl)ethylamino]-N-methoxy-N-methyl-pyrazolo[1,5-a]pyrimidine-3-carboxamide] | < 500 nM | 0%
12 | CC(C)c1cnn2c(NCCc3c[nH]c4c(F)cc(F)cc34)nc(-c3cncc(F)c3)nc12 [I-96, N-[2-(5,7-Difluoro-1H-indol-3-yl)ethyl]-2-(5-fluoro-3-pyridyl)-8-isopropyl-pyrazolo[1,5-a][1,3,5]triazin-4-amine] | < 500 nM | 36%
13 | CC(C)c1cnn2c(NCCc3c[nH]c4cccnc34)nc(-c3cncc(F)c3)nc12 [I-101, 2-(5-Fluoro-3-pyridyl)-8-isopropyl-N-[2-(1H-pyrrolo[3,2-b]pyridin-3-yl)ethyl]pyrazolo[1,5-a][1,3,5]triazin-4-amine] | < 500 nM | 1%
14 | Fc1cncc(-c2nc(NCCc3c[nH]c4ccccc34)cc(N3CCCC3)n2)c1 [I-105, 2-(5-Fluoro-3-pyridyl)-N-[2-(1H-indol-3-yl)ethyl]-6-pyrrolidin-1-yl-pyrimidin-4-amine] | < 500 nM | 8%
15 | CC(C)c1cnc2c(NCCc3c[nH]c4ccccc34)nc(-c3cncc(F)c3)cn12 [I-106, 6-(5-Fluoro-3-pyridyl)-N-[2-(1H-indol-3-yl)ethyl]-3-isopropyl-imidazo[1,2-a]pyrazin-8-amine] | < 500 nM | 1%
16 | CC(C)c1cnn2c(NC3Cc4ccc(O)cc4C3)cc(-c3cncc(F)c3)nc12 (stereo not drawn) [I-109, 2-[[5-(5-Fluoro-3-pyridyl)-3-isopropyl-pyrazolo[1,5-a]pyrimidin-7-yl]amino]indan-5-ol] | < 500 nM | 10%
17 | CC(C)c1ccc2c(N[C@@H]3CCc4[nH]c5ccccc5c4C3)nc(-c3cncc(F)c3)nn12 [I-156] | > 1500 nM | 28%
18 | CC(C)n1cnc2c(N[C@@H]3CCc4[nH]c5ccccc5c4C3)nc(-c3cncc(F)c3)nc21 [I-162, (3R)—N-[2-(5-Fluoro-3-pyridyl)-9-isopropyl-purin-6-yl]-2,3,4,9-tetrahydro-1H-carbazol-3-amine] | < 500 nM | 54%
19 | Cc1cnn2c(NCCc3c[nH]c4ccccc34)nc(-c3cncc(F)c3)nc12 [I-164, 2-(5-Fluoro-3-pyridyl)-N-[2-(1H-indol-3-yl)ethyl]-8-methyl-pyrazolo[1,5-a][1,3,5]triazin-4-amine] | < 500 nM | 0%
20 | Fc1cncc(-c2nc(N[C@@H]3CCc4[nH]c5ccccc5c4C3)n3nccc3n2)c1 [I-165, (3R)—N-[2-(5-Fluoro-3-pyridyl)pyrazolo[1,5-a][1,3,5]triazin-4-yl]-2,3,4,9-tetrahydro-1H-carbazol-3-amine] | < 500 nM | 3%
21 | CC(C)c1cnn2c(NCCc3cc[nH]c3)nc(-c3cncc(F)c3)nc12 [I-166, 2-(5-Fluoro-3-pyridyl)-8-isopropyl-N-[2-(1H-pyrrol-3-yl)ethyl]pyrazolo[1,5-a][1,3,5]triazin-4-amine] | < 500 nM | 4%
22 | CC(C)(O)c1cnn2c(NCCc3c[nH]c4ccccc34)cc(-c3cncc(F)c3)nc12 [I-177, 2-[5-(5-Fluoro-3-pyridyl)-7-[2-(1H-indol-3-yl)ethylamino]pyrazolo[1,5-a]pyrimidin-3-yl]propan-2-ol] | < 500 nM | 2%
23 | Cc1cnn2c(NCCc3cc[nH]c3)cc(-c3cncc(F)c3)nc12 [I-196, 5-(5-Fluoro-3-pyridyl)-3-methyl-N-[2-(1H-pyrrol-3-yl)ethyl]pyrazolo[1,5-a]pyrimidin-7-amine] | < 500 nM | 0%
24 | Cc1[nH]c2c(F)cccc2c1CCNc1nc(-c2cncc(F)c2)nc2ccnn12 [I-200, N-[2-(7-fluoro-2-methyl-1H-indol-3-yl)ethyl]-2-(5-fluoro-3-pyridyl)pyrazolo[1,5-a][1,3,5]triazin-4-amine] | < 500 nM | 0%
